Read-outs that look alike come from different tables or passages of the source.
Tests used:
TAAR1 = biological target: T1, TAAR1 (Homo sapiens, UniProt Q96RJ0); experiment: BRET-based cellular cAMP (EPAC biosensor) assay of TAAR1 agonism in transfected HEK-293 cells; settings: for Emax: HEK293, read-out: Emax: maximum observed activation of TAAR1 relative to that observed for 1 μM of β-PEA; for Emax: maximum observed activation of TAAR1 relative to that observed for 1 μM of β-PEA: relative to 1 μM β-PEA, mean from 3 BRET assays, errors ±5–10%
T1 sequence (Q96RJ0 1-339): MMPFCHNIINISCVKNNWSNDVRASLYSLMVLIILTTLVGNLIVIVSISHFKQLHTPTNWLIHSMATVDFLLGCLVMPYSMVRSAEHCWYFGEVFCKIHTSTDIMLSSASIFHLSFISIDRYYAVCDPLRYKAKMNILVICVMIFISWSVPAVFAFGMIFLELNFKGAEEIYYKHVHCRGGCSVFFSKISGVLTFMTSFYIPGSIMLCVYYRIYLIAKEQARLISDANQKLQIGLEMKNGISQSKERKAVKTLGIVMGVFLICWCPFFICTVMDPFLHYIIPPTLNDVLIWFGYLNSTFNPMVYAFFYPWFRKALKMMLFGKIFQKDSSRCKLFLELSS

[1] = TAAR1 activation, BRET assay, HEK-293, mean from 3 assays

For `Cc1cc(-c2nnc(CCN)[nH]2)ccc1I.Cl` [Compound 42, 2-(5-(4-Iodo-3-methylphenyl)-4H-1,2,4-triazol-3-yl)ethan-1-amine Hydrochloride], the melting point was 225 to 227 °C, the EC50 (TAAR1) was > 1000 nM and the Emax (TAAR1) was 76%.

With `COc1ccc(-c2ccc(-c3nnc(CCN)[nH]3)cc2)cc1.Cl` [Compound 58, 2-(5-(4′-Methoxy-(1,1′-biphenyl)-4-yl)-4H-1,2,4-triazol-3-yl)ethan-1-amine Hydrochloride] the melting point was 300 to 301 °C, the EC50 (TAAR1) was 6 nM and the Emax (TAAR1) was 97%.

`Cl.NCCc1nnc(-c2ccccc2Br)[nH]1` [Compound 29, 2-(5-(2-Bromophenyl)-4H-1,2,4-triazol-3-yl)ethan-1-amine Hydrochloride] showed a melting point of 194 to 196 °C, an EC50 (TAAR1) of 696 nM and an Emax (TAAR1) of 111%.

For `Cl.NCCc1nnc(-c2cccc(Oc3ccccc3Cl)c2)[nH]1` [Compound 53, 2-(5-(3-[2-Chlorophenoxy]phenyl)-4H-1,2,4-triazol-3-yl)ethan-1-amine Hydrochloride], the melting point was 202 to 210 °C, the EC50 (TAAR1) was 847 nM and the Emax (TAAR1) was 71%.

`Cl.NCCc1nnc(-c2ccc(OCc3ccc(F)cc3)cc2)[nH]1` [Compound 45, 2-(5-(4-[(4-Fluorobenzyl)oxy]phenyl)-4H-1,2,4-triazol-3-yl)ethan-1-amine Hydrochloride] gave a melting point of 220 to 222 °C, an EC50 (TAAR1) of 22 nM and an Emax (TAAR1) of 114%.

`Cl.NCCc1nnc(-c2ccc(OCc3ccccc3F)c(I)c2)[nH]1` [Compound 56, 2-(5-(4-[(2-Fluorobenzyl)oxy]-3-iodophenyl)-4H-1,2,4-triazol-3-yl)ethan-1-amine Hydrochloride] showed a melting point of 208 to 209 °C, an EC50 (TAAR1) of 316 nM and an Emax (TAAR1) of 87%.

For `Cl.NCCc1nnc(-c2ccc3ncccc3c2)[nH]1` [Compound 35, 2-(5-(Quinolin-6-yl)-4H-1,2,4-triazol-3-yl)ethan-1-amine Hydrochloride], the melting point was 265 to 267 °C, the EC50 (TAAR1) was > 1000 nM and the Emax (TAAR1) was 41%.

With `COc1cc(OC)cc(-c2nnc(CCN)[nH]2)c1.Cl` [Compound 33, 2-(5-(3,5-Dimethoxyphenyl)-4H-1,2,4-triazol-3-yl)ethan-1-amine Hydrochloride] the melting point was 245 to 247 °C, the Emax (TAAR1) was 55% and the EC50 (TAAR1; [1]) was > 1000 nM.

`Cl.NCCc1nnc(-c2ccccc2)[nH]1` [Compound 22, 2-(5-Phenyl-4H-1,2,4-triazol-3-yl)ethan-1-amine Hydrochloride] showed a melting point of 250 to 252 °C, an EC50 (TAAR1) of 283 nM and an Emax (TAAR1) of 118%.

Work on `Cl.NCCc1nnc(-c2ccc(-c3cccc(F)c3)cc2)[nH]1` [Compound 60, 2-(5-(3′-Fluoro-(1,1′-biphenyl)-4-yl)-4H-1,2,4-triazol-3-yl)ethan-1-amine Hydrochloride] yielded a melting point of 260 to 262 °C, an EC50 (TAAR1) of 26 nM and an Emax (TAAR1) of 95%.

In the case of `Cl.NCCc1nnc(-c2ccc(C(F)(F)F)cc2)[nH]1` [Compound 15, 2-(5-(4-[Trifluoromethyl]phenyl)-4H-1,2,4-triazol-3-yl)ethan-1-amine Hydrochloride], the melting point is reported as 254 to 255 °C, the EC50 (TAAR1; [1]) is reported as “inactive” and the “Emax: maximum observed activation of TAAR1 relative to that observed for 1 μM of β-PEA” value (TAAR1) is reported as “inactive”.

With `Cc1ccc(-c2nnc(CCN)[nH]2)cc1C.Cl` [Compound 37, 2-(5-(3,4-Dimethylphenyl)-4H-1,2,4-triazol-3-yl)ethan-1-amine Hydrochloride] the melting point was 231 to 234 °C, the EC50 (TAAR1) was > 1000 nM and the Emax (TAAR1) was 70%.

Compound `Cc1ccc(Oc2ccc(-c3nnc(CCN)[nH]3)cc2)cc1C.Cl` [Compound 51, 2-(5-(4-[3,4-Dimethylphenoxy]phenyl)-4H-1,2,4-triazol-3-yl)ethan-1-amine Hydrochloride] has a melting point of 201 to 203 °C, an EC50 (TAAR1) of 900 nM and an Emax (TAAR1) of 77%.

Compound `Cl.NCCc1nnc(-c2ccc(OCc3ccccc3)cc2)[nH]1` [Compound 19, 2-(5-(4-(Benzyloxy)phenyl)-4H-1,2,4-triazol-3-yl)ethan-1-amine Hydrochloride] has a melting point of 238 to 240 °C, an EC50 (TAAR1) of 26 nM and an Emax (TAAR1) of 113%. For the same compound, the EC50 (TAAR1; [1]) was “double-digit nanomolar range”.

`Cl.NCCc1nnc(-c2ccc(OC(F)(F)F)cc2)[nH]1` [Compound 9, 2-(5-(4-[Trifluoromethoxy]phenyl)-4H-1,2,4-triazol-3-yl)ethan-1-amine Hydrochloride] showed a melting point of 253 to 254 °C, an EC50 (TAAR1) of 310 nM and an Emax (TAAR1) of 116%.

`Cc1cc(-c2nnc(CCN)[nH]2)ccc1OCc1ccc(F)cc1.Cl` [Compound 48, 2-(5-(4-[(4-Fluorobenzyl)oxy]-3-methylphenyl)-4H-1,2,4-triazol-3-yl)ethan-1-amine Hydrochloride] showed a melting point of 182 to 183 °C, an EC50 (TAAR1) of 163 nM and an Emax (TAAR1) of 98%.

With `Cc1cc(-c2nnc(CCN)[nH]2)ccc1OCc1cccc(F)c1.Cl` [Compound 47, 2-(5-(4-[(3-Fluorobenzyl)oxy]-3-methylphenyl)-4H-1,2,4-triazol-3-yl)ethan-1-amine Hydrochloride] the melting point was 215 to 216 °C, the EC50 (TAAR1) was 142 nM and the Emax (TAAR1) was 106%.

`Cl.NCCc1nnc(-c2cccc([N+](=O)[O-])c2)[nH]1` [Compound 36, 2-(5-(3-Nitrophenyl)-4H-1,2,4-triazol-3-yl)ethan-1-amine Hydrochloride] showed a melting point of 214 to 216 °C, an EC50 (TAAR1) of 440 nM and an Emax (TAAR1) of 110%.

In the case of `Cl.NCCc1nnc(COc2ccccc2)[nH]1` [Compound 17, 2-(5-(Phenoxymethyl)-4H-1,2,4-triazol-3-yl)ethan-1-amine Hydrochloride], the melting point is reported as 206 to 207 °C, the EC50 (TAAR1; [1]) is reported as “inactive” and the “Emax: maximum observed activation of TAAR1 relative to that observed for 1 μM of β-PEA” value (TAAR1) is reported as “inactive”.

Compound `CCCCOc1ccc(-c2nnc(CCN)[nH]2)cc1.Cl` [Compound 40, 2-(5-(4-Butoxyphenyl)-4H-1,2,4-triazol-3-yl)ethan-1-amine Hydrochloride] has a melting point of 205 to 207 °C, an EC50 (TAAR1) of 34 nM and an Emax (TAAR1) of 107%. The EC50 (TAAR1; [1]) was “double-digit nanomolar range”.

In the case of `COc1ccc(-c2ccc(-c3nnc(CCN)[nH]3)cc2)cc1OC.Cl` [Compound 64, 2-(5-(3′,4′-Dimethoxy-(1,1′-biphenyl)-4-yl)-4H-1,2,4-triazol-3-yl)ethan-1-amine Hydrochloride], the melting point is reported as 199 to 201 °C, the EC50 (TAAR1) is reported as 185 nM and the Emax (TAAR1) is reported as 104%.

`Cc1ccccc1-c1nnc(CCN)[nH]1.Cl` [Compound 23, 2-(5-(2-Methylphenyl)-4H-1,2,4-triazol-3-yl)ethan-1-amine Hydrochloride] gave a melting point of 235 to 236 °C, an EC50 (TAAR1) of 468 nM and an Emax (TAAR1) of 116%.

For `Cl.NCCc1nnc(C(c2ccccc2)c2ccccc2)[nH]1` [Compound 13, 2-(5-(Diphenylmethyl)-4H-1,2,4-triazol-3-yl)ethan-1-amine Hydrochloride], the melting point was 236 to 237 °C, the EC50 (TAAR1; [1]) was “inactive” and the “Emax: maximum observed activation of TAAR1 relative to that observed for 1 μM of β-PEA” value (TAAR1) was “inactive”.

Work on `Cl.NCCc1nnc(-c2cccc(Br)c2)[nH]1` [Compound 20, 2-(5-(3-Bromophenyl)-4H-1,2,4-triazol-3-yl)ethan-1-amine Hydrochloride] yielded a melting point of 239 to 241 °C, an EC50 (TAAR1) of 218 nM and an Emax (TAAR1) of 124%.

For `Cl.NCCc1nnc(-c2cccs2)[nH]1` [Compound 16, 2-(5-(Thiophen-2-yl)-4H-1,2,4-triazol-3-yl)ethan-1-amine Hydrochloride], the melting point was 248 to 250 °C, the EC50 (TAAR1) was > 1000 nM and the Emax (TAAR1) was 138%.

With `Cl.NCCc1nnc(-c2cccc(O)c2)[nH]1` [Compound 55, 3-(5-(2-Aminoethyl)-4H-1,2,4-triazol-3-yl)phenol Hydrochloride] the melting point was 234 to 235 °C, the EC50 (TAAR1) was > 1000 nM and the Emax (TAAR1) was 88%.

Work on `Cl.NCCc1nnc(-c2cccc(-c3ccc(OC(F)(F)F)cc3)c2)[nH]1` [Compound 67, 2-(5-(4′-(Trifluoromethoxy)-(1,1′-biphenyl)-3-yl)-4H-1,2,4-triazol-3-yl)ethan-1-amine Hydrochloride] yielded a melting point of 253 to 257 °C, an EC50 (TAAR1) of 96 nM and an Emax (TAAR1) of 94%.

Work on `Cl.NCCc1nnc(-c2ccc(-c3ccc(OC(F)(F)F)cc3)cc2)[nH]1` [Compound 59, 2-(5-(4′-Trifluoromethoxy-(1,1′-biphenyl)-4-yl)-4H-1,2,4-triazol-3-yl)ethan-1-amine Hydrochloride] yielded a melting point of 299 to 300 °C, an EC50 (TAAR1) of 13 nM and an Emax (TAAR1) of 95%.

With `Cl.NCCc1nnc(-c2ccncc2)[nH]1` [Compound 10, 2-(5-(Pyridin-4-yl)-4H-1,2,4-triazol-3-yl)ethan-1-amine Hydrochloride] the melting point was 257 to 258 °C, the Emax (TAAR1) was 47% and the EC50 (TAAR1; [1]) was > 1000 nM.

Source: article PMC9687812, “Discovery of Trace Amine-Associated Receptor 1 (TAAR1) Agonist 2-(5-(4′-Chloro-[1,1′-biphenyl]-4-yl)-4H-1,2,4-triazol-3-yl)ethan-1-amine (LK00764) for the Treatment of Psychotic Disorders” (Biomolecules, 2022)
